Measured values published in paper PMC3832545 (PLoS ONE, 2013).

Legend:
MC38 cells = assay: MTT cell proliferation assay, MC38 cells; format: cell-based, mouse; conditions: 24 h, 0.25% (v/v) serum, 0.001 to 1000 nM, three independent experiments with four replicates
Procedure: Effect of test compounds on proliferation was assessed with 3-(4,5-dimethylthiazol-2-yl)-2,5-diphenyl tetrazolium bromide (MTT) assays, essentially as described previously. In brief, MC38 cells were plated in 96-well plates (5,000 cells per well) in growth medium. […] Data for relative cell numbers from the three repeated experiments, each with four replicate samples per condition, were then used to fit dose-response curves using GraphPad Prism version 6.0 (GraphPad Software Inc., La Jolla, CA, USA). Cell proliferation experiments were done with MCF-7 cells as described for MC38 cells, except that 20,000 cells were plated per well. See Materials S1 and Figure S1 for detailed supplementary information regarding cell proliferation experiments.
In initial tests the association between number of cells and absorbance at 570 nm measured in an MTT assay was examined after incubation of MC38 cells with MTT for 3 h, 3 h after plating different number of cells per well, i.e., the total incubation period was 6 h. As expected there was a highly linear relationship between absolute number of cells and the measured absorbance (Figure S1). […] After incubation for 1 day cells were rinsed in PBS (room temperature) and then starvation medium was added. […] Control samples were treated with starvation medium only. After treatment for 21 h, 10 µl stock solution of MTT dissolved in PBS (5.0 mg/ml) was added to each well, and incubation was continued for 3 h so treatment with test compounds in total lasted 24 h. At the end of the treatment period medium with test compounds was removed and formazan crystals were suspended by adding 100 µl 0.04 M HCl dissolved in isopropanol to each well and absorbance was thereafter read at 570 nm using a Emax PC plate reader (Molecular Devices LLC, Sunnyvale, CA, USA). Each treatment was done with four replicate samples and three independent experiments were performed. In each experiment the absorbance was normalized to the mean absorbance in the untreated control samples. […]

[1] = Mouse C-peptide in plasma after sc injection in DIO-mice; format: in vivo; conditions: 600 nmol/kg sc, P<0.05
Procedure: Before experiments were initiated, the systemic levels of mouse insulin were measured using a Rat/Mouse Insulin ELISA kit (Millipore Corp., Bilerica, MA, USA), according to manufacturer’s instructions. […] Mouse C-peptide was assayed with Rat/Mouse C-peptide 2 ELISA kit (Millipore), according to manufacturer’s instructions. […] Insulin X10 was measured in mouse plasma using a wash-LOCI assay, as also described recently. See Materials S1 for detailed information regarding these assays.
At termination of experiments whole blood was collected in EDTA-coated tubes (BD Biosciences) by cardiac puncture. Blood plasma was isolated by centrifugation for 10 min at 1500 rpm and thereafter stored at -80 °C until analysis. Mouse C-peptide was assayed with Rat/Mouse C-peptide 2 ELISA kit (Millipore) according to manufacturer’s instructions. […] In initial tests the sensitivity and specificity of the assay in mouse plasma was confirmed. […] After incubation for another 30 min at 21-22 °C chemiluminescence was measured in an Envision plate reader (Perkin Elmer). […] Finally 10 µl of streptavidin coated donor beads were added, incubated as above and immediately after this chemiluminescence was measured using an Envision plate reader. […]

IGF-1 receptor (IGF-1R) = conditions: ref [10], [11]; cited from earlier work
[2] = test system: female Sprague Dawley rats; conditions: rat, in vivo; cited from earlier work

## IGF-1: recombinant human IGF-1 (Increlex, IPSEN Pharma GmbH)
MC38 cells
  Ranking according to mitogenic potency (MTT assay): X10≥IGF-1>HI

## human insulin [HI]
MC38 cells
  Ranking according to mitogenic potency (MTT assay): X10≥IGF-1>HI
[1]
  Levels of C-peptide in plasma 0.5 h after treatment compared to >5 h: significantly decreased

## insulin analog B10Asp [X10]
MC38 cells
  Ranking according to mitogenic potency (MTT assay): X10≥IGF-1>HI
[1]
  Levels of C-peptide in plasma 0.5 h after treatment compared to >5 h: significantly decreased
IGF-1 receptor (IGF-1R)
  Increase of binding affinity to the IGF-1 receptor (vs human insulin): 3- to 5 fold
[2]
  Incidence of spontaneous mammary tumors: increased the incidence
